From PubChem BioAssay AID1963839 (Molecular Pharmacology Branch, DTP, NCI, 2024)
pIC50: −log10 of the molar value.

System: 817829-284-R-J1-PDC complex spheroid viability
Test: Anticancer human tumor 817829-284-R-J1-PDC patient-derived colon adenocarcinoma cell line growth inhibition [POLQ]
Settings: for pIC50: curve of first compound; for viability, T/C: stronger effect = lower value
Summary of the method: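 Complex spheroid viability model combining PDC tumour cells with endothelial (HUVEC) and MSC stromal cells. Novobiocin, ART-558 or RP6685 were tested singly and in combination with standard and investigational anticancer drugs. Each was titrated in half-log steps from near clinical Cmax, or from 10 microM where Cmax was unknown.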

[1] = second compound 0.0316 µM, first compound 0.0316 µM
[2] = second compound 0.0316 µM, first compound 0.1 µM
[3] = second compound 0.0316 µM, first compound 0.316 µM
[4] = second compound 0.0316 µM, first compound 1 µM
[5] = second compound 0.0316 µM, first compound 3.16 µM
[6] = second compound 0.0316 µM, first compound 10 µM
[7] = second compound 0.1 µM, first compound 0.0316 µM
[8] = second compound 0.1 µM, first compound 0.1 µM
[9] = second compound 0.1 µM, first compound 0.316 µM
[10] = second compound 0.1 µM, first compound 1 µM
[11] = second compound 0.1 µM, first compound 3.16 µM
[12] = second compound 0.1 µM, first compound 10 µM
[13] = second compound 0.316 µM, first compound 0.0316 µM
[14] = second compound 0.316 µM, first compound 0.1 µM
[15] = second compound 0.316 µM, first compound 0.316 µM
[16] = second compound 0.316 µM, first compound 1 µM
[17] = second compound 0.316 µM, first compound 3.16 µM
[18] = second compound 0.316 µM, first compound 10 µM
[19] = second compound 1 µM, first compound 0.0316 µM
[20] = second compound 1 µM, first compound 0.1 µM
[21] = second compound 1 µM, first compound 0.316 µM
[22] = second compound 1 µM, first compound 1 µM
[23] = second compound 1 µM, first compound 3.16 µM
[24] = second compound 1 µM, first compound 10 µM
[25] = second compound 3.16 µM, first compound 0.0316 µM
[26] = second compound 3.16 µM, first compound 0.1 µM
[27] = second compound 3.16 µM, first compound 0.316 µM
[28] = second compound 3.16 µM, first compound 1 µM
[29] = second compound 3.16 µM, first compound 3.16 µM
[30] = second compound 3.16 µM, first compound 10 µM
[31] = second compound 10 µM, first compound 0.0316 µM
[32] = second compound 10 µM, first compound 0.1 µM
[33] = second compound 10 µM, first compound 0.316 µM
[34] = second compound 10 µM, first compound 1 µM
[35] = second compound 10 µM, first compound 3.16 µM
[36] = second compound 10 µM, first compound 10 µM
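Note: spheroids exposed to compounds for 7 days.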
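Throughout, for viability, T/C: 100% = DMSO vehicle-treated spheroids.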

`COc1cc2cc(C(=O)CCC(=O)O)sc2cc1OC` + COC1C(OC(N)=O)C(O)C(Oc2ccc3c(O)c(NC(=O)c4ccc(O)c(CC=C(C)C)c4)c(=O)oc3c2C)OC1(C)C gave a pIC50 (second compound 0.0316 µM) of less than 5.00, a pIC50 (second compound 0.1 µM) of less than 5.00 and a pIC50 (second compound 0.316 µM) of less than 5.00. It also gave a pIC50 (second compound 1 µM) of less than 5.00, a pIC50 (second compound 3.16 µM) of less than 5.00 and a pIC50 (second compound 10 µM) of less than 5.00. It also gave a viability, T/C [1] of 81.3%, a viability, T/C [2] of 96.4% and a viability, T/C [3] of 83.3%. The viability, T/C [4] was 85.8%, the viability, T/C [5] was 94.6% and the viability, T/C [6] was 85.6%. For the same molecule, the viability, T/C [7] was 97.8%, the viability, T/C [8] was 104% and the viability, T/C [9] was 89.7%. It also gave a viability, T/C [10] of 98.2%, a viability, T/C [11] of 49.2% and a viability, T/C [12] of 102%. For the same molecule, the viability, T/C [13] was 75.7%, the viability, T/C [14] was 94.6% and the viability, T/C [15] was 88.9%. For the same molecule, the viability, T/C [16] was 94.6%, the viability, T/C [17] was 112% and the viability, T/C [18] was 66.7%. It also gave a viability, T/C [19] of 88.2%, a viability, T/C [20] of 109% and a viability, T/C [21] of 71.1%. For the same molecule, the viability, T/C [22] was 105%, the viability, T/C [23] was 83.9% and the viability, T/C [24] was 86.1%. For the same molecule, the viability, T/C [25] was 85.5%, the viability, T/C [26] was 108% and the viability, T/C [27] was 98.7%. For the same molecule, the viability, T/C [28] was 99.5%, the viability, T/C [29] was 110% and the viability, T/C [30] was 61.3%. The viability, T/C [31] was 106%, the viability, T/C [32] was 71.2% and the viability, T/C [33] was 90.9%. The viability, T/C [34] was 80.8%, the viability, T/C [35] was 117% and the viability, T/C [36] was 74.1%.

`C=CCn1c(=O)c2cnc(Nc3ccc(N4CCN(C)CC4)cc3)nc2n1-c1cccc(C(C)(C)O)n1` + Nc1ccc(C#CCN(C(=O)Cc2ncc(C(F)(F)F)cc2C(F)(F)F)c2ccc(F)cc2)nn1 showed a pIC50 (second compound 0.0316 µM) of 6.59, a pIC50 (second compound 0.1 µM) of 6.66 and a pIC50 (second compound 0.316 µM) of 6.67. For the same molecule, the pIC50 (second compound 1 µM) was 6.59, the pIC50 (second compound 3.16 µM) was 6.70 and the pIC50 (second compound 10 µM) was 6.63. For the same molecule, the viability, T/C (second compound 0.0316 µM, first compound 0.00316 µM) was 90.9%, the viability, T/C (second compound 0.0316 µM, first compound 0.01 µM) was 118% and the viability, T/C [1] was 97.2%. It also gave a viability, T/C [2] of 72.6%, a viability, T/C [3] of 47% and a viability, T/C [4] of 5.79%. It also gave a viability, T/C (second compound 0.1 µM, first compound 0.00316 µM) of 103%, a viability, T/C (second compound 0.1 µM, first compound 0.01 µM) of 103% and a viability, T/C [7] of 83.6%. For the same molecule, the viability, T/C [8] was 79.9%, the viability, T/C [9] was 36% and the viability, T/C [10] was 6.74%. It also gave a viability, T/C (second compound 0.316 µM, first compound 0.00316 µM) of 90.6%, a viability, T/C (second compound 0.316 µM, first compound 0.01 µM) of 113% and a viability, T/C [13] of 87.8%. It also gave a viability, T/C [14] of 78%, a viability, T/C [15] of 36.1% and a viability, T/C [16] of 5.29%. It also gave a viability, T/C (second compound 1 µM, first compound 0.00316 µM) of 110%, a viability, T/C (second compound 1 µM, first compound 0.01 µM) of 115% and a viability, T/C [19] of 85.5%. For the same molecule, the viability, T/C [20] was 82.4%, the viability, T/C [21] was 42.2% and the viability, T/C [22] was 5.43%. For the same molecule, the viability, T/C (second compound 3.16 µM, first compound 0.00316 µM) was 93.7%, the viability, T/C (second compound 3.16 µM, first compound 0.01 µM) was 82.2% and the viability, T/C [25] was 100%. For the same molecule, the viability, T/C [26] was 75.2%, the viability, T/C [27] was 31.8% and the viability, T/C [28] was 5.58%. For the same molecule, the viability, T/C (second compound 10 µM, first compound 0.00316 µM) was 90.7%, the viability, T/C (second compound 10 µM, first compound 0.01 µM) was 105% and the viability, T/C [31] was 89.7%. For the same molecule, the viability, T/C [32] was 80.7%, the viability, T/C [33] was 39.7% and the viability, T/C [34] was 5.43%.

`Nc1ccn(C2OC(CO)C(O)C2(F)F)c(=O)n1` (stereo unspecified) + COC1C(OC(N)=O)C(O)C(Oc2ccc3c(O)c(NC(=O)c4ccc(O)c(CC=C(C)C)c4)c(=O)oc3c2C)OC1(C)C was tested, and the pIC50 (second compound 0.0316 µM) was greater than 7.50, the pIC50 (second compound 0.1 µM) was greater than 7.50 and the pIC50 (second compound 0.316 µM) was greater than 7.50. It also gave a pIC50 (second compound 1 µM) greater than 7.50, a pIC50 (second compound 3.16 µM) greater than 7.50 and a pIC50 (second compound 10 µM) greater than 7.50. It also gave a viability, T/C [1] of 5.87%, a viability, T/C [2] of 4.61% and a viability, T/C [3] of 5.48%. For the same molecule, the viability, T/C [4] was 4.5%, the viability, T/C [5] was 3.65% and the viability, T/C [6] was 3.38%. The viability, T/C [7] was 5.96%, the viability, T/C [8] was 4.96% and the viability, T/C [9] was 5.53%. For the same molecule, the viability, T/C [10] was 4.76%, the viability, T/C [11] was 3.8% and the viability, T/C [12] was 3.28%. It also gave a viability, T/C [13] of 5.1%, a viability, T/C [14] of 4.62% and a viability, T/C [15] of 5.85%. For the same molecule, the viability, T/C [16] was 5.46%, the viability, T/C [17] was 3.59% and the viability, T/C [18] was 2.73%. The viability, T/C [19] was 4.99%, the viability, T/C [20] was 4.37% and the viability, T/C [21] was 5.56%. It also gave a viability, T/C [22] of 4.58%, a viability, T/C [23] of 4.04% and a viability, T/C [24] of 3.14%. The viability, T/C [25] was 4.75%, the viability, T/C [26] was 4.78% and the viability, T/C [27] was 5.45%. For the same molecule, the viability, T/C [28] was 4.57%, the viability, T/C [29] was 3.73% and the viability, T/C [30] was 3.65%. For the same molecule, the viability, T/C [31] was 6.16%, the viability, T/C [32] was 4.98% and the viability, T/C [33] was 5.43%. The viability, T/C [34] was 5.17%, the viability, T/C [35] was 4.49% and the viability, T/C [36] was 3.17%.
